The source of these data is article PMC10345685, “Anthocyanin and proanthocyanidin from Aronia melanocarpa (Michx.) Ell.: Purification, fractionation, and enzyme inhibition” (Food Science & Nutrition, 2023).

Read-outs that look alike come from different tables or passages of the source.

Experiment [1] addresses α‐Glucosidase. The note with it: cited from earlier work.
The target in experiment [2] is α‐Amylase. The note with it: cited from earlier work.
Experiment [3] deals with Lipase. As to conditions: cited from earlier work.
Experiment [4] concerns the target T1, Lipase from human porcine pancreas (Sus scrofa, UniProt P00591).
T1 construct: purchased Sigma‐Aldrich, Inc (Shanghai, China)
T1 sequence (P00591 1-450): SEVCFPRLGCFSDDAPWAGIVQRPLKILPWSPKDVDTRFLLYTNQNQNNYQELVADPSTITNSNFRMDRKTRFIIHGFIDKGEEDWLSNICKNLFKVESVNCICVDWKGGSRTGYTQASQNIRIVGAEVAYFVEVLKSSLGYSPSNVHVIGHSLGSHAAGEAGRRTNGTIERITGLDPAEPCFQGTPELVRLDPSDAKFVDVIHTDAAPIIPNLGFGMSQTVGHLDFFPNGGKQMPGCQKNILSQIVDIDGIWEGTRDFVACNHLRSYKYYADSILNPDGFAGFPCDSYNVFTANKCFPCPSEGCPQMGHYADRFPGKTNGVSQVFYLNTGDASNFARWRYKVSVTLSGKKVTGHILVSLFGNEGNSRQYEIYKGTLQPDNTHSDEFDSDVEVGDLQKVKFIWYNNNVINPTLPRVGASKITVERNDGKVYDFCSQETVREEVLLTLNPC
In words: Lipase inhibition (pNP laurate substrate). Type of experiment: biochemical. As to conditions: comparison among the anthocyanins / proanthocyanidin fractions. From the text: (§1) All the chemicals used for analyses were of analytical grade and high‐performance liquid chromatography (HPLC) chemicals were of HPLC purity and were all purchased from Sinopharm Chemical Reagent Co., Ltd (Shanghai, China). Lipase from […] porcine pancreas (EC 3.1.1.3), α‐amylase from human pancreas (EC 3.2.1.1), and α‐glucosidase from Bacillus stearothermophilus (EC 3.2.1.20) were obtained from Sigma‐Aldrich, Inc (Shanghai, China). Standards of cyanidin 3‐galactoside, cyanidin 3‐arabinoside, cyanidin 3‐xyloside, cyanidin 3‐glucoside, catechin, and epicatechin were obtained from Sigma‐Aldrich, Inc. (Shanghai, China). Amberlite XAD7HP, Sephadex LH‐20, and ENVI 18 DSK SPE were obtained from Sigma‐Aldrich, Inc (Shanghai, China).
The lipase inhibitory activity was determined according to the method described by Tan et al. ([2017]) with modifications (Table 3). Three hundred and fifty μL phosphate buffer (0.05 M, pH 7.6), 150 μL of porcine lipase enzyme solution (50 mg/mL), and 50 μL of fractionated compounds were added in a centrifuge tube (1.5 mL size) and incubated at 37°C for exactly 10 min. Then, 450 μL pNP laurate substrate was added to the reaction mixture and blended, followed by incubation at 37°C for 120 min without light. The reaction mixture was centrifuged for 10 min at 8000 g and the supernatant of 200 μL was taken into a 96‐well plate to determine the absorbance at 405 nm. The percentage inhibition was calculated using Equation 4. Lipase inhibitory activity was measured at five different concentrations, and a logarithmic regression curve was established to calculate IC50 values (Tan et al., [2017]). (4) Lipase inhibitory activity%=1−As−Ab/At−Ac×100%

Experiment [5] addresses T2, α‐amylase from human pancreas (Homo sapiens, UniProt P04746).
T2 construct: purchased Sigma‐Aldrich, Inc (Shanghai, China)
T2 sequence (P04746 16-511): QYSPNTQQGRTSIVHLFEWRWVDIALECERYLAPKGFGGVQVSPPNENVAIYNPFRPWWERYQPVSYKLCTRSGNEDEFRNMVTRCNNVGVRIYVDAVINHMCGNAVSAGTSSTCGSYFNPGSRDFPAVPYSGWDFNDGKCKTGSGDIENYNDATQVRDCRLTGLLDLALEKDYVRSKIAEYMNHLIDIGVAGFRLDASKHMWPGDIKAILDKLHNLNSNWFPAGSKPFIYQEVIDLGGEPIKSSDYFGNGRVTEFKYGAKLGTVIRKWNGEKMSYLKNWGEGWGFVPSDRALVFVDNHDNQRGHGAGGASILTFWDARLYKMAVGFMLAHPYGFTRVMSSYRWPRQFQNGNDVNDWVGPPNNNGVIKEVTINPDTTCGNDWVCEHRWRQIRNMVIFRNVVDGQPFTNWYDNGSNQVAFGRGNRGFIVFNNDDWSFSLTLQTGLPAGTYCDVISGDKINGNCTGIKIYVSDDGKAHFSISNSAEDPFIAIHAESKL
In words: α‐Amylase inhibition (DNS method, soluble starch). As to conditions: comparison among the anthocyanins / proanthocyanidin fractions. Type of experiment: biochemical.
Source text: as §1, with “Amberlite XAD7HP, Sephadex LH‐20, and ENVI 18 DSK SPE were obtained from Sigma‐Aldrich, Inc (Shanghai, China).” left out
α‐Amylase inhibitory activity was determined using the method from Tan et al. ([2017]), with a slight modification as Table 1 indicates. […] Then, 200 μL of the mixture was taken and added to a 96‐well plate and the absorption at 540 nm was determined. To eliminate the background absorbance produced by the fractionated compounds, an appropriate extract control without enzyme was included. α‐Amylase inhibitory activity was measured at five different concentrations, and a logarithmic regression curve was established to calculate IC50 values (mg/mL) (Tan et al., [2017]). The α‐amylase inhibitory activity was expressed as function 2 and the As, Ab, At, and Ac indicated the absorbance in different solutions as shown in Table 1. […]

Setting [6] is: nf, not found, ref Worsztynowicz et al., 2014.
Where [7] appears, read: ref Akkarachiyasit et al., 2010.

Take `Oc1cc(O)c2cc(OC3OCC(O)C(O)C3O)c(-c3ccc(O)c(O)c3)[o+]c2c1` (centres unmarked) [Cyanidin 3‐arabinoside, cyanidin 3‐arabinoside]: the “IC50 values α‐Glucosidase” value in experiment [1] (ref Bräunlich et al., 2013) was 0.37 ± 0.08 μg/mL (Bräunlich et al., [2013]). In addition, the “IC50 values α‐Amylase” value in experiment [2] (setting [6]) was 3.98 ± 0.10 mg/mL (Worsztynowicz et al., [2014]). In addition, in experiment [3] (setting [6]), the “IC50 values Lipase” value is “nf (Worsztynowicz et al., [2014])”. Besides, the “inhibition effect on lipase (in words)” value in experiment [4] is “no inhibition effects”.
Regarding `Oc1cc(O)c2cc(OC3OCC(O)C(O)C3O)c(-c3ccc(O)c(O)c3)[o+]c2c1` (centres unmarked) [Cyanidin 3‐xyloside, cyanidin 3‐xyloside], the “inhibition effect on α‐amylase (in words)” value in experiment [5] was “no effect”. For the same molecule, the “IC50 values α‐Glucosidase” value in experiment [1] (ref Bräunlich et al., 2013) was 5.5 ± 1.6 μg/mL (Bräunlich et al., [2013]). Further, in experiment [2] (setting [6]), the “IC50 values α‐Amylase” value is “nf (Worsztynowicz et al., [2014])”. In addition, the “IC50 values Lipase” value in experiment [3] (setting [6]) is “nf (Worsztynowicz et al., [2014])”. In addition, in experiment [4], the “inhibition effect on lipase (in words)” value was “no inhibition effects”.
In the case of `OCC1OC(Oc2cc3c(O)cc(O)cc3[o+]c2-c2ccc(O)c(O)c2)C(O)C(O)C1O` (centres unmarked) [Cyanidin 3‐glucoside, cyanidin 3‐glucoside], the “inhibition effect on α‐amylase (in words)” value in experiment [5] is “strongest inhibition effects”. Also, the “IC50 values α‐Glucosidase” value is 435.53 ± 22.45 µg/mL in experiment [1] (for sucrose, ref Akkarachiyasit et al., 2010) and 0.87 ± 0.2 µg/mL in experiment [1] (ref Bräunlich et al., 2013). For the same molecule, the “IC50 values α‐Amylase” value in experiment [2] (setting [6]) was 1.74 ± 0.04 mg/mL; in experiment [2] (setting [7]), 0.1347 ± 0.00449 mg/mL. The “IC50 values Lipase” value in experiment [3] (setting [6]) is 1170 ± 40 µg/mL; in experiment [3] (ref Vijayaraj et al., 2019) it was 84.54 ± 2.94 µg/mL. Besides, in experiment [4], the “inhibition effect on lipase (in words)” value is “strongest inhibition effects”.
The IC50 is the point on the concentration scale where inhibition reaches its midpoint. With `OCC1OC(Oc2cc3c(O)cc(O)cc3[o+]c2-c2ccc(O)c(O)c2)C(O)C(O)C1O` (centres unmarked) [Cyanidin 3‐galactoside, cyanidin 3‐galactoside], the “IC50 values α‐Glucosidase” value in experiment [1] (for sucrose, ref Adisakwattana et al., 2009) is 224.5 ± 22.45 µg/mL; in experiment [1] (ref Bräunlich et al., 2013) it was 1.54 ± 0.1 µg/mL. In experiment [2] (setting [6]), the “IC50 values α‐Amylase” value is listed as 5.16 ± 0.06 mg/mL. In addition, the IC50 in experiment [2] (setting [7]) is greater than 1000 µM. In addition, in experiment [3] (setting [6]), the “IC50 values Lipase” value was “nf (Worsztynowicz et al., [2014])”. Besides, the “inhibition effect on lipase (in words)” value in experiment [4] is reported as “no inhibition effects”.
